According to US20260055088A1, “HETEROCYCLIC COMPOUND, METHOD FOR PREPARING SAME, AND PHARMACEUTICAL USE THEREOF” (Jiangsu Hengrui Pharmaceuticals Co., Ltd., priority 2022, published 2026):

Molecular target: Nav1.8 ion channel stably expressed on HEK293 cells (Homo sapiens (Human), UniProt Q9Y5Y9)
Test: Inhibitory activity against Nav1.8, manual patch clamp
Format: cell-based
Settings: resting protocol (-80 mV to 10 mV), 1 μM TTX, read-out: IC50 for the inhibition of Nav1.8 channel activity

Q: How did the IC50 turn out when `CO/N=C(\N)c1cc(NC(=O)[C@@H]2O[C@@](C)(C(F)(F)F)[C@@H](C)[C@H]2c2ccc(F)c(F)c2OC)ccn1` [Example 16] was run?
A: 0.33 nM

Q: For `COc1c([C@H]2[C@H](C(=O)Nc3ccnc(/C(N)=N/O)c3)O[C@@](C)(C(F)(F)F)[C@H]2C)ccc(F)c1F` [Example 32], which IC50 is on record?
A: 0.93 nM
